# Data reported in the supplement of paper PMC10307832.
# Key:
# Assay in all cases: relative viability (nuclei count vs DMSO), 5 days (fraction); higher = more cells survive
# NCI-H2023 = system: NCI-H2023
# Summary of the method: (§1)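 After 5 days of treatment, lung cancer cells in 1536-well plates were fixed and stained in a single step (final 0.05% Triton X-100, 1% formaldehyde, 1 ug/ml Hoechst) and their nuclei counted on 4× images. Treatment had been applied by pin tool the day after seeding as one drug alone or as a fixed anchor-drug dose with five library-drug doses (not always all listed) in √10 steps. Relative viability is the nuclei count of treated wells divided by that of vehicle wells, and values are medians of duplicate plates.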
# HCC-44 = system: HCC-44
# Summary of the method: as §1
# HCC-366 = system: HCC-366
# Summary of the method: as §1
# NCI-H441 = system: NCI-H441
# Summary of the method: as §1
# NCI-H1975 = system: NCI-H1975
# Summary of the method: as §1
# NCI-H1651 = system: NCI-H1651
# Summary of the method: as §1
# NCI-H2085 = system: NCI-H2085
# Summary of the method: as §1
# LU99A = system: LU99A
# Summary of the method: as §1
# NCI-H1734 = system: NCI-H1734
# Summary of the method: as §1
# CAL-12T = system: CAL-12T
# Summary of the method: as §1
# NCI-H2342 = system: NCI-H2342
# Summary of the method: as §1
# NCI-H358 = system: NCI-H358
# Summary of the method: as §1
# NCI-H1395 = system: NCI-H1395
# Summary of the method: as §1
# NCI-H460 = system: NCI-H460
# Summary of the method: as §1
# NCI-H1355 = system: NCI-H1355
# Summary of the method: as §1
# BEN = system: BEN
# Summary of the method: as §1
# NCI-H1650 = system: NCI-H1650
# Summary of the method: as §1
# NCI-H1755 = system: NCI-H1755
# Summary of the method: as §1
# EKVX = system: EKVX
# Summary of the method: as §1
# NCI-H1437 = system: NCI-H1437
# Summary of the method: as §1
# NCI-H838 = system: NCI-H838
# Summary of the method: as §1
# LOU-NH91 = system: LOU-NH91
# Summary of the method: as §1
smiles,measurement,setting,value
NC(=O)Nc1cc(-c2cccc(F)c2)sc1C(=O)N[C@H]1CCCNC1 [AZD7762] + CC(=O)c1c(C)c2cnc(Nc3ccc(N4CCNCC4)cn3)nc2n(C2CCCC2)c1=O [Palbociclib] (partner 0.5 µM),relative viability,NCI-H2023; first compound 0.01 µM,0.402
same,relative viability,NCI-H2023; first compound 0.03162 µM,0.377
same,relative viability,NCI-H2023; first compound 0.1 µM,0.219
same,relative viability,NCI-H2023; first compound 0.3162 µM,0.162
same,relative viability,NCI-H2023; first compound 1 µM,0.095
same,relative viability,HCC-44; first compound 0.01 µM,1.02
same,relative viability,HCC-44; first compound 0.03162 µM,0.923
same,relative viability,HCC-44; first compound 0.1 µM,0.965
same,relative viability,HCC-44; first compound 0.3162 µM,0.93
same,relative viability,HCC-44; first compound 1 µM,1.04
same,relative viability,HCC-366; first compound 0.01 µM,0.478
same,relative viability,HCC-366; first compound 0.03162 µM,0.387
same,relative viability,HCC-366; first compound 0.1 µM,0.407
same,relative viability,HCC-366; first compound 0.3162 µM,0.28
same,relative viability,HCC-366; first compound 1 µM,0.106
same,relative viability,NCI-H441; first compound 0.01 µM,0.242
same,relative viability,NCI-H441; first compound 0.03162 µM,0.26
same,relative viability,NCI-H441; first compound 0.1 µM,0.232
same,relative viability,NCI-H441; first compound 0.3162 µM,0.251
same,relative viability,NCI-H441; first compound 1 µM,0.256
same,relative viability,NCI-H1975; first compound 0.01 µM,0.519
same,relative viability,NCI-H1975; first compound 0.03162 µM,0.549
same,relative viability,NCI-H1975; first compound 0.1 µM,0.585
same,relative viability,NCI-H1975; first compound 0.3162 µM,0.352
same,relative viability,NCI-H1975; first compound 1 µM,0.357
same,relative viability,NCI-H1651; first compound 0.01 µM,0.574
same,relative viability,NCI-H1651; first compound 0.03162 µM,0.525
same,relative viability,NCI-H1651; first compound 0.1 µM,0.556
same,relative viability,NCI-H1651; first compound 0.3162 µM,0.558
same,relative viability,NCI-H1651; first compound 1 µM,0.501
same,relative viability,NCI-H2085; first compound 0.01 µM,0.478
same,relative viability,NCI-H2085; first compound 0.03162 µM,0.458
same,relative viability,NCI-H2085; first compound 0.1 µM,0.494
same,relative viability,NCI-H2085; first compound 0.3162 µM,0.483
same,relative viability,NCI-H2085; first compound 1 µM,0.544
same,relative viability,LU99A; first compound 0.01 µM,0.469
same,relative viability,LU99A; first compound 0.03162 µM,0.427
same,relative viability,LU99A; first compound 0.1 µM,0.438
same,relative viability,LU99A; first compound 0.3162 µM,0.408
same,relative viability,LU99A; first compound 1 µM,0.354
same,relative viability,NCI-H1734; first compound 0.01 µM,0.38
same,relative viability,NCI-H1734; first compound 0.03162 µM,0.364
same,relative viability,NCI-H1734; first compound 0.1 µM,0.395
same,relative viability,NCI-H1734; first compound 0.3162 µM,0.356
same,relative viability,NCI-H1734; first compound 1 µM,0.317
same,relative viability,CAL-12T; first compound 0.01 µM,0.519
same,relative viability,CAL-12T; first compound 0.03162 µM,0.502
same,relative viability,CAL-12T; first compound 0.1 µM,0.412
same,relative viability,CAL-12T; first compound 0.3162 µM,0.194
same,relative viability,CAL-12T; first compound 1 µM,0.129
same,relative viability,NCI-H2342; first compound 0.01 µM,0.492
same,relative viability,NCI-H2342; first compound 0.03162 µM,0.513
same,relative viability,NCI-H2342; first compound 0.1 µM,0.447
same,relative viability,NCI-H2342; first compound 0.3162 µM,0.483
same,relative viability,NCI-H2342; first compound 1 µM,0.505
same,relative viability,NCI-H358; first compound 0.01 µM,0.182
same,relative viability,NCI-H358; first compound 0.03162 µM,0.141
same,relative viability,NCI-H358; first compound 0.1 µM,0.111
same,relative viability,NCI-H358; first compound 0.3162 µM,0.105
same,relative viability,NCI-H358; first compound 1 µM,0.0964
same,relative viability,NCI-H1395; first compound 0.01 µM,0.642
same,relative viability,NCI-H1395; first compound 0.03162 µM,0.68
same,relative viability,NCI-H1395; first compound 0.1 µM,0.56
same,relative viability,NCI-H1395; first compound 0.3162 µM,0.456
same,relative viability,NCI-H1395; first compound 1 µM,0.363
same,relative viability,NCI-H460; first compound 0.01 µM,0.254
same,relative viability,NCI-H460; first compound 0.03162 µM,0.117
same,relative viability,NCI-H460; first compound 0.1 µM,0.0606
same,relative viability,NCI-H460; first compound 0.3162 µM,0.0344
same,relative viability,NCI-H460; first compound 1 µM,0.0224
same,relative viability,NCI-H1355; first compound 0.01 µM,0.415
same,relative viability,NCI-H1355; first compound 0.03162 µM,0.389
same,relative viability,NCI-H1355; first compound 0.1 µM,0.389
same,relative viability,NCI-H1355; first compound 0.3162 µM,0.418
same,relative viability,NCI-H1355; first compound 1 µM,0.39
same,relative viability,BEN; first compound 0.01 µM,0.476
same,relative viability,BEN; first compound 0.03162 µM,0.483
same,relative viability,BEN; first compound 0.1 µM,0.436
same,relative viability,BEN; first compound 0.3162 µM,0.422
same,relative viability,BEN; first compound 1 µM,0.366
same,relative viability,NCI-H1650; first compound 0.01 µM,0.367
same,relative viability,NCI-H1650; first compound 0.03162 µM,0.397
same,relative viability,NCI-H1650; first compound 0.1 µM,0.344
same,relative viability,NCI-H1650; first compound 0.3162 µM,0.314
same,relative viability,NCI-H1650; first compound 1 µM,0.176
same,relative viability,NCI-H1755; first compound 0.01 µM,0.483
same,relative viability,NCI-H1755; first compound 0.03162 µM,0.488
same,relative viability,NCI-H1755; first compound 0.1 µM,0.466
same,relative viability,NCI-H1755; first compound 0.3162 µM,0.495
same,relative viability,NCI-H1755; first compound 1 µM,0.442
same,relative viability,EKVX; first compound 0.01 µM,0.414
same,relative viability,EKVX; first compound 0.03162 µM,0.415
same,relative viability,EKVX; first compound 0.1 µM,0.372
same,relative viability,EKVX; first compound 0.3162 µM,0.445
same,relative viability,EKVX; first compound 1 µM,0.299
same,relative viability,NCI-H1437; first compound 0.01 µM,0.357
same,relative viability,NCI-H1437; first compound 0.03162 µM,0.293
same,relative viability,NCI-H1437; first compound 0.1 µM,0.379
same,relative viability,NCI-H1437; first compound 0.3162 µM,0.41
same,relative viability,NCI-H1437; first compound 1 µM,0.35
same,relative viability,NCI-H838; first compound 0.01 µM,0.27
same,relative viability,NCI-H838; first compound 0.03162 µM,0.198
same,relative viability,NCI-H838; first compound 0.1 µM,0.243
same,relative viability,NCI-H838; first compound 0.3162 µM,0.221
same,relative viability,NCI-H838; first compound 1 µM,0.221
same,relative viability,LOU-NH91; first compound 0.01 µM,0.528
same,relative viability,LOU-NH91; first compound 0.03162 µM,0.525
same,relative viability,LOU-NH91; first compound 0.1 µM,0.542
same,relative viability,LOU-NH91; first compound 0.3162 µM,0.609
same,relative viability,LOU-NH91; first compound 1 µM,0.503
